Results taken from PubChem BioAssay AID330 (DTP/NCI, 2004).
Values joined by “and” are separate entries in the source; they are usually repeats but may differ in a detail not shown here. Equal values may be shown once. Toxic doses and inconclusive results are not listed. Peptide text beside a SMILES is read from it. * marks the point of attachment. Boc = CC(C)(C)OC(=O)*

Test system: P388 leukemia ip, CD2F1 mice, survival T/C
Experiment: NCI In Vivo Anticancer Drug Screen. Data for tumor model P388 Leukemia (intraperitoneal) in CD2F1 (CDF1) mice
Conditions: endpoint: median survival time, higher = longer survival
How it was run: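 Mice carrying the transplanted tumor received test compound or vehicle. Survival was recorded in each group, and the value is the treated-group measurement divided by that of the vehicle-treated control group.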

[1] = dose: 60.0 mg/kg/injection, schedule: Q01DX005 (ip), vehicle: saline with Tween-80
[2] = dose: 120.0 mg/kg/injection, schedule: Q01DX005 (ip), vehicle: saline with Tween-80
[3] = dose: 50.0 mg/kg/injection, schedule: Q01DX005 (ip), vehicle: Klucel (hydroxypropylcellulose) (HPC)
[4] = dose: 100.0 mg/kg/injection, schedule: Q01DX005 (ip), vehicle: Klucel (hydroxypropylcellulose) (HPC)
[5] = dose: 200.0 mg/kg/injection, schedule: Q01DX005 (ip), vehicle: Klucel (hydroxypropylcellulose) (HPC)

In the case of `COC(=O)C[C@](O)(CCCC(C)(C)O)C(=O)O[C@@H]1C(OC)=C[C@]23CCCN2CCc2cc4c(cc2[C@H]13)OCO4`, the T/C (dose: 0.06 mg/kg/injection, schedule: Q01DX005 (iv), vehicle: clinical formulation) is reported as 106 % of control, the T/C (dose: 0.06 mg/kg/injection, schedule: Q01DX005 (iv), vehicle: saline) is reported as 104 % of control and the T/C (dose: 0.12 mg/kg/injection, schedule: Q01DX005 (iv), vehicle: clinical formulation) is reported as 112 % of control. For the same compound, the T/C (dose: 0.12 mg/kg/injection, schedule: Q01DX005 (iv), vehicle: saline) was 102 % of control, the T/C (dose: 0.12 mg/kg/injection, schedule: Q01DX009 (ip), vehicle: clinical formulation) was 155 % of control and the T/C (dose: 0.12 mg/kg/injection, schedule: Q01DX009 (ip), vehicle: saline) was 152 % of control. The T/C (dose: 0.25 mg/kg/injection, schedule: Q01DX005 (iv), vehicle: clinical formulation) was 121 % of control, the T/C (dose: 0.25 mg/kg/injection, schedule: Q01DX005 (iv), vehicle: saline) was 102 % of control and the T/C (dose: 0.25 mg/kg/injection, schedule: Q01DX009 (ip), vehicle: clinical formulation) was 166 % of control. For the same compound, the T/C (dose: 0.25 mg/kg/injection, schedule: Q01DX009 (ip), vehicle: saline) was 162 % of control, the T/C (dose: 0.5 mg/kg/injection, schedule: Q01DX005 (iv), vehicle: clinical formulation) was 160 % of control and the T/C (dose: 0.5 mg/kg/injection, schedule: Q01DX009 (ip), vehicle: clinical formulation) was 199 % of control. For the same compound, the T/C (dose: 0.5 mg/kg/injection, schedule: Q01DX009 (ip), vehicle: saline) was 185 % of control, the T/C (dose: 0.58 mg/kg/injection, schedule: Q01DX009 (ip), vehicle: acid diluted with saline) was 194 % of control and the T/C (dose: 0.75 mg/kg/injection, schedule: Q01DX009 (ip), vehicle: acid diluted with saline) was 173 % of control and 180 % of control. For the same compound, the T/C (dose: 1.0 mg/kg/injection, schedule: Q01DX005 (iv), vehicle: clinical formulation) was 194 % of control, the T/C (dose: 1.0 mg/kg/injection, schedule: Q01DX005 (iv), vehicle: saline) was 168 % of control and the T/C (dose: 1.0 mg/kg/injection, schedule: Q01DX009 (ip), vehicle: clinical formulation) was 252 % of control. The T/C (dose: 1.65 mg/kg/injection, schedule: Q01DX009 (ip), vehicle: acid diluted with saline) was 211 % of control and 229 % of control, the T/C (dose: 1.75 mg/kg/injection, schedule: Q01DX009 (ip), vehicle: acid diluted with saline) was 229 % of control and 234 % of control and 93 % of control and the T/C (dose: 1.8 mg/kg/injection, schedule: Q04DX003 (ip), vehicle: saline + alcohol) was 159 % of control. For the same compound, the T/C (dose: 1.8 mg/kg/injection, schedule: Q04DX003 (ip), vehicle: saline) was 152 % of control, the T/C (dose: 2.0 mg/kg/injection, schedule: Q01DX005 (iv), vehicle: saline) was 203 % of control and the T/C (dose: 2.25 mg/kg/injection, schedule: Q01DX009 (ip), vehicle: acid diluted with saline) was 223 % of control (2×) and 93 % of control. The T/C (dose: 2.5 mg/kg/injection, schedule: Q01DX009 (ip), vehicle: acid diluted with saline) was 106 % of control and 95 % of control, the T/C (dose: 3.0 mg/kg/injection, schedule: Q01DX009 (ip), vehicle: acid diluted with saline) was 66 % of control and the T/C (dose: 3.0 mg/kg/injection, schedule: Q04DX003 (ip), vehicle: saline + alcohol) was 99 % of control. For the same compound, the T/C (dose: 3.33 mg/kg/injection, schedule: Q04DX003 (ip), vehicle: saline) was 103 % of control.

For `CCc1[nH]c2ccccc2c1C(=O)c1cccnc1`, the T/C (dose: 50.0 mg/kg/injection, schedule: Q04DX003 (ip), vehicle: Klucel (hydroxypropylcellulose) (HPC)) was 101 % of control, the T/C (dose: 100.0 mg/kg/injection, schedule: Q04DX003 (ip), vehicle: Klucel (hydroxypropylcellulose) (HPC)) was 97 % of control and the T/C (dose: 200.0 mg/kg/injection, schedule: Q04DX003 (ip), vehicle: Klucel (hydroxypropylcellulose) (HPC)) was 100 % of control.

For `OC1(c2ccccc2)C2CC1C2` (configuration not stated), the T/C (dose: 100.0 mg/kg/injection, schedule: Q04DX002 (ip), vehicle: saline) was 104 % of control, the T/C (dose: 200.0 mg/kg/injection, schedule: Q04DX002 (ip), vehicle: saline) was 101 % of control and the T/C (dose: 400.0 mg/kg/injection, schedule: Q04DX002 (ip), vehicle: saline) was 102 % of control.

For `CC(=O)C1=C(C)O/C(=C/c2ccc(Cl)cc2)C1=O`, the T/C (dose: 25.0 mg/kg/injection, schedule: Q01DX005 (ip), vehicle: saline with Tween-80) was 118 % of control, the T/C (dose: 50.0 mg/kg/injection, schedule: Q01DX005 (ip), vehicle: saline with Tween-80) was 118 % of control and 120 % of control and the T/C (dose: 100.0 mg/kg/injection, schedule: Q01DX005 (ip), vehicle: saline with Tween-80) was 119 % of control and 124 % of control.

For `COc1ccc(N2C(=O)C(C)SC23C(=O)Nc2ccc(C)cc23)cc1` (configuration not stated), the T/C [1] was 109 % of control, the T/C [2] was 102 % of control and the T/C (dose: 240.0 mg/kg/injection, schedule: Q01DX005 (ip), vehicle: saline with Tween-80) was 119 % of control.

`CCCC(=O)C(CC)C1(C(=O)OC)NC(=S)NC(=O)C1C#N` (configuration not stated) was tested, and the T/C (dose: 60.0 mg/kg/injection, schedule: Q01DX005 (ip), vehicle: saline) was 98 % of control, the T/C (dose: 120.0 mg/kg/injection, schedule: Q01DX005 (ip), vehicle: saline) was 105 % of control and the T/C (dose: 240.0 mg/kg/injection, schedule: Q01DX005 (ip), vehicle: saline) was 98 % of control.

In the case of `CC1=C(C)C(=O)c2c(c(O)c3ccccc3c2Cl)C1=O`, the T/C (dose: 0.75 mg/kg/injection, schedule: Q01DX005 (ip), vehicle: saline with Tween-80) is reported as 96 % of control, the T/C (dose: 1.5 mg/kg/injection, schedule: Q01DX005 (ip), vehicle: saline with Tween-80) is reported as 89 % of control and the T/C (dose: 3.0 mg/kg/injection, schedule: Q01DX005 (ip), vehicle: saline with Tween-80) is reported as 91 % of control. For the same compound, the T/C (dose: 200.0 mg/kg/injection, schedule: Q01DX005 (ip), vehicle: saline with Tween-80) was 93 % of control.

With `CCOC(=O)/C=C1/CC(C#N)(C(=O)NN)CO1` (configuration not stated) the T/C (dose: 100.0 mg/kg/injection, schedule: Q01DX001 (ip), vehicle: Klucel (hydroxypropylcellulose) (HPC)) was 102 % of control, the T/C (dose: 200.0 mg/kg/injection, schedule: Q01DX001 (ip), vehicle: Klucel (hydroxypropylcellulose) (HPC)) was 110 % of control and the T/C (dose: 400.0 mg/kg/injection, schedule: Q01DX001 (ip), vehicle: Klucel (hydroxypropylcellulose) (HPC)) was 100 % of control.

`COc1cc(C2SCC(=O)N2c2nnc(C(F)(F)F)s2)cc(OC)c1OC` (configuration not stated) was tested, and the T/C [1] was 98 % of control and the T/C [2] was 88 % of control.

`C=CCC1(OC(C)=O)CC2C(=O)C(=O)C(C1)N2OC(=O)c1ccccc1` (configuration not stated) was tested, and the T/C [3] was 100 % of control, the T/C [4] was 87 % of control and the T/C [5] was 94 % of control.

In the case of `O=NN(CCCl)C(=O)Oc1ccc(Cl)cc1Cl`, the T/C (dose: 3.12 mg/kg/injection, schedule: Q01DX001 (ip), vehicle: saline with Tween-80) is reported as 106 % of control, the T/C (dose: 6.25 mg/kg/injection, schedule: Q01DX001 (ip), vehicle: saline with Tween-80) is reported as 118 % of control and the T/C (dose: 25.0 mg/kg/injection, schedule: Q01DX001 (ip), vehicle: saline with Tween-80) is reported as 123 % of control. For the same compound, the T/C (dose: 50.0 mg/kg/injection, schedule: Q01DX001 (ip), vehicle: saline with Tween-80) was 109 % of control, the T/C (dose: 100.0 mg/kg/injection, schedule: Q01DX001 (ip), vehicle: saline with Tween-80) was 122 % of control and the T/C (dose: 150.0 mg/kg/injection, schedule: Q01DX001 (ip), vehicle: saline with Tween-80) was 118 % of control.

In the case of `CSC(=S)/C(=C(/[O-])c1ccccc1)[n+]1cccc(C)c1`, the T/C (dose: 2.5 mg/kg/injection, schedule: Q04DX002 (ip), vehicle: saline with Tween-80) is reported as 99 % of control, the T/C (dose: 5.0 mg/kg/injection, schedule: Q04DX002 (ip), vehicle: saline with Tween-80) is reported as 106 % of control and the T/C (dose: 10.0 mg/kg/injection, schedule: Q04DX002 (ip), vehicle: saline with Tween-80) is reported as 106 % of control.

For `CCSCCC(N)C(=O)O` (configuration not stated), the T/C (dose: 12.5 mg/kg/injection, schedule: Q01DX009 (ip), vehicle: saline with Tween-80) was 95 % of control, the T/C (dose: 25.0 mg/kg/injection, schedule: Q01DX009 (ip), vehicle: saline with Tween-80) was 100 % of control and the T/C (dose: 50.0 mg/kg/injection, schedule: Q01DX009 (ip), vehicle: saline with Tween-80) was 100 % of control. The T/C (dose: 100.0 mg/kg/injection, schedule: Q04DX003 (ip), vehicle: saline with Tween-80) was 104 % of control, the T/C (dose: 200.0 mg/kg/injection, schedule: Q04DX003 (ip), vehicle: saline with Tween-80) was 100 % of control and the T/C (dose: 400.0 mg/kg/injection, schedule: Q04DX003 (ip), vehicle: saline with Tween-80) was 109 % of control.

`COC(=O)C(CO)NC(=O)C(Cc1ccccc1)NC(=O)OC(C)(C)C` (stereo not drawn) (Boc-Phe-Ser-OMe; configuration not given here) was tested, and the T/C [3] was 99 % of control, the T/C [4] was 105 % of control and the T/C [5] was 100 % of control.

`C[c-]1[c-][c-][c-][c-]1.[C-]#[O+].[C-]#[O+].[C-]#[O+].[Mn]` was tested, and the T/C (dose: 12.5 mg/kg/injection, schedule: Q01DX005 (ip), vehicle: Klucel (hydroxypropylcellulose) (HPC)) was 94 % of control, the T/C (dose: 25.0 mg/kg/injection, schedule: Q01DX005 (ip), vehicle: Klucel (hydroxypropylcellulose) (HPC)) was 95 % of control and the T/C [3] was 99 % of control. The T/C [4] was 99 % of control.
